Earlier results in patent US20060172402A1, “Production of vanillin in microbial cells” (priority 2002, published 2006).

Test system: tobacco class II COMT
Conditions: Maury et al., 1999

SMILES | activity of the enzyme against the substrate
O=Cc1ccc(O)c(O)c1 [3,4-Dihydioxybenzaldehyde, 3,4-dihydroxybenzaldehyde] | did have activity
COc1cc(/C=C/C(=O)O)cc(O)c1O [5-OH-Ferulic acid] | no activity
O=C(O)/C=C/c1ccc(O)c(O)c1 [Caffeic acid] | no activity
